The values below are quoted from earlier work in patent US5043353A, “A80789 polyether antibiotic” (Eli Lilly and Company, priority 1989, dated 1991).

The subject of the data set is coccidiosis. To be noted: alone; Science, 122: 244 (1955); cited from earlier work.

`O=C(Nc1ccc([N+](=O)[O-])cc1)Nc1ccc([N+](=O)[O-])cc1` [4,4'-dinitrocarbanilide]: the anticoccidial activity entry is listed as “exhibits anticoccidial activity”.
